This is an account of results in ChEMBL document CHEMBL1201862, “PubChem BioAssay data set” (2004).

Some test systems named below: ACHN; CCRF-CEM; DU-145; HCT-15; HL-60; HT-29; K562; LOX IMVI; MDA-MB-231; MDA-MB-435; NCI-H522; OVCAR-3; OVCAR-4; OVCAR-5; PC-3; SF-539; T47D; U-251; UACC-257; UO-31.
Assay in all cases: growth of human tumour cells (NCI), 48 h

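Cultured in 96-well plates, cells were exposed to test compound for 48 hours across five concentrations. Abbreviation: GI50, concentration required for 50% inhibition of growth.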 Active and inactive are the calls of the source. No stated cut-off is given here; in the data, active = GI50 up to about 1.1 µM and inactive = higher. Where only a bound is given, the exact number is not on record here.

Consider `CSC(=N/C=C/c1ccccc1)SC`, for which the GI50 in the experiment with ACHN was > 100 µM (inactive); in the experiment on CCRF-CEM it was 98.9 µM (inactive); in the experiment with DU-145 it was > 100 µM (inactive); in the experiment on HCT-15 it was above 100 µM; in the experiment with HL-60, 49.9 µM (inactive); in the experiment on HT-29 it was > 100 µM (inactive). The GI50 in the experiment on K562 was 72.8 µM (inactive); with LOX IMVI it was 50.5 µM (inactive); in the experiment on MDA-MB-231, > 100 µM (inactive); with MDA-MB-435, 76.7 µM (inactive); in the experiment with NCI-H522, 64 µM (inactive); with OVCAR-3, 51.4 µM (inactive). The GI50 in the experiment with OVCAR-4 was > 100 µM (inactive); with OVCAR-5, > 100 µM (inactive); in the experiment on PC-3, 64.3 µM (inactive); in the experiment on SF-539 it was > 100 µM (inactive); with T47D it was > 100 µM (inactive); with U-251, > 100 µM (inactive). Further, the GI50 in the experiment on UACC-257 and in the experiment with UO-31 was > 100 µM (inactive) in each case.

Consider `CC(C)/C(Cl)=N/OC(=O)Nc1ccc(OC(F)(F)F)cc1`, for which the GI50 was 12.6 µM (inactive) in the experiment on ACHN; 1.27 µM (inactive) with CCRF-CEM; 17.2 µM (inactive) with DU-145; 6.12 µM in the experiment on HCT-15; 1.97 µM (inactive) in the experiment on HL-60; 18.6 µM (inactive) in the experiment on HT-29. For the same compound, the GI50 in the experiment with K562 is 1.76 µM (inactive); in the experiment on LOX IMVI it was 2.1 µM (inactive); in the experiment with MDA-MB-231, 15.6 µM (inactive); in the experiment on MDA-MB-435 it was 12.6 µM (inactive); with NCI-H522, 1.47 µM (inactive); with OVCAR-3, 17.9 µM (inactive). Also, the GI50 is 4.19 µM (inactive) in the experiment on OVCAR-4; 15.6 µM (inactive) with OVCAR-5; 16.1 µM (inactive) with PC-3; 17.3 µM (inactive) in the experiment on SF-539; 8.55 µM (inactive) in the experiment on T47D; 17.3 µM (inactive) in the experiment with U-251. The figures for the GI50 in the experiment with UACC-257 and in the experiment on UO-31 were 13.7 µM (inactive) and 10.8 µM (inactive), respectively.

Take `Cn1c(NNc2ccccc2)cc(=O)[nH]c1=O`: the GI50 is 4.25 µM (inactive) in the experiment with ACHN; 20.6 µM (inactive) in the experiment on CCRF-CEM; > 100 µM (inactive) with DU-145; 16.3 µM in the experiment on HCT-15; 32.7 µM (inactive) in the experiment on HL-60; 86.9 µM (inactive) in the experiment with HT-29. The GI50 with K562 is 36.7 µM (inactive); with LOX IMVI it was 20 µM (inactive); with MDA-MB-231, 28.9 µM (inactive); in the experiment with MDA-MB-435 it was 20.9 µM (inactive); in the experiment with NCI-H522 it was 19.1 µM (inactive); in the experiment with OVCAR-3, 23.2 µM (inactive). In addition, the GI50 in the experiment with OVCAR-4 is 55.8 µM (inactive); in the experiment with OVCAR-5 it was > 100 µM (inactive); in the experiment on PC-3, 38.6 µM (inactive); with SF-539, 29.3 µM (inactive); in the experiment on T47D it was 30.9 µM (inactive); in the experiment with U-251 it was 53.5 µM (inactive). Besides, the GI50 was 95.7 µM (inactive) in the experiment with UACC-257 and 28.2 µM (inactive) with UO-31.

In the case of `C(=N\c1ccc(-c2nc3ccccc3[nH]2)cc1)/c1cccs1`, the GI50 was > 100 µM (inactive) in the experiment on ACHN; 22 µM (inactive) in the experiment on CCRF-CEM; > 100 µM (inactive) in the experiment with DU-145; 84.9 µM with HCT-15; 22 µM (inactive) with HL-60; > 100 µM (inactive) in the experiment with HT-29. Also, the GI50 was 81.7 µM (inactive) with K562; > 100 µM (inactive) in the experiment with LOX IMVI; 51.4 µM (inactive) in the experiment with MDA-MB-231; > 100 µM (inactive) with MDA-MB-435; 62.8 µM (inactive) with NCI-H522; 49.7 µM (inactive) in the experiment with OVCAR-3. The GI50 was > 100 µM (inactive) in the experiment on OVCAR-4; > 100 µM (inactive) in the experiment on OVCAR-5; 73.1 µM (inactive) with PC-3; > 100 µM (inactive) with SF-539; 31.9 µM (inactive) with T47D; 89.7 µM (inactive) in the experiment with U-251. Further, the GI50 is > 100 µM (inactive) in the experiment with UACC-257 and 31.2 µM (inactive) in the experiment with UO-31.

Consider `CCOC(=O)/C(C(N)=O)=C(O)/C(O)=C(\Br)C(=O)c1ccccc1`, for which the GI50 in the experiment on ACHN was 19.1 µM (inactive); in the experiment on CCRF-CEM, 0.979 µM (active); in the experiment with DU-145 it was 19.6 µM (inactive); with HCT-15 it was 18.2 µM; in the experiment with HL-60, 0.0622 µM (active); in the experiment on HT-29, 25.9 µM (inactive). The GI50 in the experiment on K562 was 11.8 µM (inactive); in the experiment on LOX IMVI, 15.6 µM (inactive); with MDA-MB-231, 19.6 µM (inactive); with MDA-MB-435, 16.9 µM (inactive); in the experiment with NCI-H522, 1.72 µM (inactive); with OVCAR-3 it was 20.7 µM (inactive). Further, the GI50 is 22 µM (inactive) in the experiment with OVCAR-4; 19.4 µM (inactive) in the experiment on OVCAR-5; 17.4 µM (inactive) with PC-3; 18.5 µM (inactive) in the experiment with SF-539; 23.1 µM (inactive) with T47D; 18.2 µM (inactive) in the experiment on U-251. The results for the GI50 in the experiment on UACC-257 and with UO-31 were 17.9 µM (inactive) and 18.9 µM (inactive), respectively.

Take `NC(CCC(=O)O)C(=O)NC(Cc1ccc(N(CCCl)CCCl)cc1)C(=O)O` (stereo not given): the GI50 with ACHN was > 100 µM (inactive); in the experiment with CCRF-CEM, > 100 µM (inactive); with DU-145, > 100 µM (inactive); in the experiment with HCT-15 it was above 100 µM; in the experiment on HL-60, > 100 µM (inactive); in the experiment on HT-29, > 100 µM (inactive). The GI50 with K562, in the experiment with LOX IMVI, in the experiment with MDA-MB-231, with MDA-MB-435, in the experiment with NCI-H522 and in the experiment on OVCAR-3 was > 100 µM (inactive) throughout. The GI50 with OVCAR-4, in the experiment on OVCAR-5, in the experiment with PC-3, with SF-539, in the experiment on T47D and in the experiment with U-251 was > 100 µM (inactive) throughout. Moreover, the GI50 in the experiment on UACC-257 and in the experiment with UO-31 was > 100 µM (inactive) in each case.

As to `O=C1NC(=O)C(c2c[nH]c3cc(Br)ccc23)=C1c1cn(C(c2ccccc2)(c2ccccc2)c2ccccc2)cn1`, the GI50 with ACHN was 20.2 µM (inactive); with CCRF-CEM, 5.45 µM (inactive); in the experiment on DU-145, 21.6 µM (inactive); in the experiment on HCT-15, 12.8 µM; with HL-60 it was 13.7 µM (inactive); in the experiment with HT-29, 9.48 µM (inactive). The GI50 is 6.3 µM (inactive) in the experiment on K562; 15.1 µM (inactive) in the experiment on LOX IMVI; 5.97 µM (inactive) in the experiment with MDA-MB-231; 6.24 µM (inactive) in the experiment on MDA-MB-435; 13.3 µM (inactive) with NCI-H522; 29.7 µM (inactive) in the experiment on OVCAR-3. The GI50 is 26.5 µM (inactive) in the experiment on OVCAR-4; 17.5 µM (inactive) with OVCAR-5; 6.19 µM (inactive) in the experiment on PC-3; 14.8 µM (inactive) in the experiment with SF-539; 15.2 µM (inactive) with T47D; 10.7 µM (inactive) with U-251. The GI50 in the experiment on UACC-257 is 18.5 µM (inactive); with UO-31, 14.8 µM (inactive).
